This note sets out measurements from patent publication US9598448B2, “Osmium (II) arene imino anti-cancer complexes” (University of Warwick, priority 2010, dated 2017).

Entries after “also recorded” stand apart in the source; their conditions may differ. Bounds are passed on as bounds.

The subject of one series is colon cancer OoLO 205. Description: NCI 60-cell line screen, colon cancer line. Type of series: cell-based, human. The settings on record: colon cancer OoLO 205, 48 h. The protocol:
(§1) The cells were treated for 48 h at five concentrations ranging from 0.01 to 100 μM. Three endpoints were calculated: GI 50 (the concentration inhibits cell growth by 50%): […]

Series [1] relates to human tumor 60-cell line panel. Description: NCI/DTP human tumor 60-cell line panel screen. The note with it: NCI 60-cell line panel, MG-MID, 48 h. Type of series: cell-based. The protocol:
The cells were treated for 48 h at five concentrations ranging from 0.01 to 100 μM. Three endpoints were calculated: GI 50 (the concentration inhibits cell growth by 50%):
TGI (the concentration inhibits cell growth by 100%)
LC 50 (the concentration kills original cells by 50%)
MG-MID (full-panel mean-graph midpoint).

A short description of series [2]: Stability and hydrolysis (1H NMR, MS, UV-vis). Type of series: physicochemical. The note with it: 310 K, 24 h, 95% deuterated phosphate buffer (10 mM)/5% MeOD-d4.
For series [3], the system named is Balb/c immunodeficient nude mice bearing HCT-116 tumours. In words: Evaluation of in vivo toxicity in nude mouse HCT-116 xenograft model. The note with it: i.v. day 0, doses from 2 up to 40 mg kg^−1, monitored 15 days. The procedure: Female Balb/c immunodeficient nude mice (Harlan, Loughborough, UK) aged 6-12 weeks were used. Mice received Harlan 2018 diet (Harlan) and water ad libitum. Mice were kept in cages in an air-conditioned room with regular alternating cycles of light and darkness. All animal procedures were carried out under a project license issued by the UK Home Office and UKCCCR guidelines (Workman P, Twentyman P, Balkwill F et al: United Kingdom Co-ordinating Committee on Cancer Research (UKCCCR) Guidelines for the Welfare of Animals in Experimental Neoplasia (Second Edition). Br J Cancer 77: 1-10, 1998) were followed throughout.
HCT-116 was used in the study. Tumours were excised from a donor animal, placed in sterile physiological saline containing antibiotics and cut into small fragments of approximately 2 mm^3. Under brief general inhalation anaesthesia, fragments were implanted in the […] abdominal flank of each mouse using a trocar. Once the tumours could accurately be measured using callipers (mean tumour volume of approximately 50 mm^3), treatment commenced. Complexes 3 and 6 were solubilised in 10% DMSO; 5% Tween-80; 85% saline and were administered intravenously to groups of 2 mice on day 0. Animals were weighed frequently and monitored for any deleterious effects over a period of 15 days.

The subject of series [4] is human ovarian A2780 cancer cells. In words: SRB growth inhibition assay, A2780. Type of series: cell-based. The note with it: SRB; 24 h exposure, 72 h recovery; read-out: IC50 values for azopyridine complexes against A2780 ovarian cancer cells. The procedure: The concentrations of the osmium complexes that inhibit 50% of the proliferation of human ovarian A2780 cancer cells were determined by sulforhodamine B test. A2780 cells were seeded in 96-well plate (Falcon) at 5000 cells/well, after the incubation for 48 h, The complexes were solubilised in DMSO (Sigma) to provide 10 mM stocks. The stocks were serially diluted by cell culture media to give concentrations four-fold than the final concentrations for the assay. The dilutions of complexes in cell culture media were added to the 96-well plate with cells in triplicates to achieve the final concentrations. The final DMSO concentration in each well was no more than 1% (v/v). The complexes were removed after 24 h. The cells were washed with Phosphate Buffered Saline once and cell culture media was added 150 μL/well. The cells were recovered for 72 h. The surviving cells were fixed by adding 150 μL/well of 50% (w/v) trichloroacetic acid and incubated for 1 h at 277 K (277 K). The plates were washed with tap water three times and dried under a flow of warm air, 0.4% sulforhodamine B (Sigma) solution 100 μL/well followed by washing with 1% acetic acid five times and dried under a flow of warm air. The dye was dissolved in 10 mM Tris buffer […] The absorbance of each well was obtained by the Multiskan Ascent plate reader (Labsystems) at 540 nm. The absorbance value of SRB in each well is directly proportional to the cell number. Then the absorbance can be plotted against concentration and the IC50 determined by using Origin software.
The cytotoxicity studies were carried out as described previously above.

In series [5] the test system is HCT-116 colon adenocarcinoma s.c. xenograft model. In words: In vivo efficacy in HCT-116 s.c. xenograft model.
The subject of another series is Leukemia HL-60 (TB). In words: NCI 60-cell line screen, HL-60 (TB). The note with it: 48 h. Type of series: cell-based, human. The protocol:
as §1

For series [6], the system named is A2780/cis ovarian (cisplatin-resistant). Description: MTT growth inhibition assay, A2780/cis. Type of series: cell-based, human. The note with it: 96 h. The procedure: (§2) Tumor cell growth inhibition was assessed using the MTT assay.^13 2×10^3 cells were inoculated into a 96-well plate and incubated overnight at 37° C. in a humidified atmosphere containing 5% CO2. Complexes were solubilised in DMSO as above, and then diluted in complete cell culture medium to give a broad range of concentrations. Cisplatin was included in the screen as a comparator. Medium was removed from each well and replaced with complex or control solutions, and the plates then incubated for a further 96 hours. After 96 h culture medium was removed and 200 μL of 0.5 mg mL^−1 MTT solution (Sigma) in complete medium added to each well. Following further 4 h incubation, the solution was removed from each well and 150 μL of DMSO (Sigma) added to solubilise the formazan crystals resulting from MTT conversion. Absorbance values for the resulting solutions were read at 550 nm on a microplate reader and cell survival calculated as the absorbance of treated cells divided by the control. Results were expressed in terms of IC50 values (i.e. concentration of compound required to kill 50% of cells) and all experiments were performed in triplicate.
(§3) The following human cancer cell lines were cultured in RPMI 1640 cell culture medium supplemented with 1 mM sodium pyruvate, 2 mM L-glutamine and 10% fetal bovine serum (all from Sigma): A549 non-small cell lung, HCT-116 colon, MCF-7 breast, PC-3 prostate (all from LGC Promochem, Teddington, UK), A2780/cis ovarian (cisplatin-resistant) and RT-112 bladder (both from ECACC, Salisbury, UK).
In general terms: Tetrazolium dyes change colour on reduction, which living cells bring about.

In the next series the test system is MCF-7 breast. In words: MTT growth inhibition assay, MCF-7. The settings on record: 96 h. Type of series: cell-based, human. The procedure: as §2, §3
In the next series the test system is HCT-116 colon. In words: MTT growth inhibition assay, HCT-116. Type of series: cell-based, human. The note with it: 96 h. The procedure: as §2, §3
The mark [7] stands for this setting: 40.0 mg kg^−1, single intravenous injection.

For orientation: GI50 means the concentration at which growth is held to half of that of the control. Lower therefore signals more potent growth inhibition. For orientation: LC50 means the concentration that kills 50% of the test population. A high value points to a less lethal substance. By TGI is commonly meant the concentration giving total growth inhibition. A word on the IC50: it is the concentration at which inhibition is half-maximal.

With “[(η^6-p-cym)Os(Azpy-NMe2)I]PF6 [Complex 6]”, the results for the GI50 (in the series with colon cancer OoLO 205; in [1]; in the series with Leukemia HL-60 (TB)) were below 50 nM, 280 nM and below 50 nM, respectively. In [1], this substance gave a median lethal concentration (LC50) of 6300 nM. The same substance registered a TGI in [1] of 1170 nM. Moreover, the “stability and hydrolysis in aqueous solution” value in series [2] was “remained stable and did not hydrolyze”. Besides, in series [3], the “toxicity / deleterious effects” value was “no evident toxicity; also recorded: negligible deleterious effects”. In addition, the IC50 in [4] was 200 nM; in series [6], below 300 nM; with MCF-7 breast, 79 nM; in the series on HCT-116 colon, below 300 nM. For the same substance, the “Maximum % weight loss” value in [5] (setting [7]) was determined as 8%. Also, the “Median tumour doubling time” value in series [5] (setting [7]) was found to be 6.2 days. Further, the “day of maximum % weight loss” value in series [5] (setting [7]) was 1 days. Further, the toxicity result in [5] (single i.v. 40 mg/kg) is “negligible toxicity”. Also, the tumour growth delay result in [5] (single i.v. 40 mg/kg, compared to the untreated control (p<0.01)) is “statistically significant tumour growth delay”.
